Tested on: not listed separately
Assay: Cmax in rat at 5 mg/kg, po
Type: ADME, organism-based
Design: dose 5 mg/kg, route oral
Conditions: in vivo

Row | SMILES | Cmax [ng/mL]
1 | O=c1[nH]c(N2CCC(c3ccccc3)CC2)c(Cc2ccccc2)c(=O)[nH]1 | 143

Target: T1, Mineralocorticoid receptor (Homo sapiens, UniProt P08235)
T1 sequence (P08235 whole entry): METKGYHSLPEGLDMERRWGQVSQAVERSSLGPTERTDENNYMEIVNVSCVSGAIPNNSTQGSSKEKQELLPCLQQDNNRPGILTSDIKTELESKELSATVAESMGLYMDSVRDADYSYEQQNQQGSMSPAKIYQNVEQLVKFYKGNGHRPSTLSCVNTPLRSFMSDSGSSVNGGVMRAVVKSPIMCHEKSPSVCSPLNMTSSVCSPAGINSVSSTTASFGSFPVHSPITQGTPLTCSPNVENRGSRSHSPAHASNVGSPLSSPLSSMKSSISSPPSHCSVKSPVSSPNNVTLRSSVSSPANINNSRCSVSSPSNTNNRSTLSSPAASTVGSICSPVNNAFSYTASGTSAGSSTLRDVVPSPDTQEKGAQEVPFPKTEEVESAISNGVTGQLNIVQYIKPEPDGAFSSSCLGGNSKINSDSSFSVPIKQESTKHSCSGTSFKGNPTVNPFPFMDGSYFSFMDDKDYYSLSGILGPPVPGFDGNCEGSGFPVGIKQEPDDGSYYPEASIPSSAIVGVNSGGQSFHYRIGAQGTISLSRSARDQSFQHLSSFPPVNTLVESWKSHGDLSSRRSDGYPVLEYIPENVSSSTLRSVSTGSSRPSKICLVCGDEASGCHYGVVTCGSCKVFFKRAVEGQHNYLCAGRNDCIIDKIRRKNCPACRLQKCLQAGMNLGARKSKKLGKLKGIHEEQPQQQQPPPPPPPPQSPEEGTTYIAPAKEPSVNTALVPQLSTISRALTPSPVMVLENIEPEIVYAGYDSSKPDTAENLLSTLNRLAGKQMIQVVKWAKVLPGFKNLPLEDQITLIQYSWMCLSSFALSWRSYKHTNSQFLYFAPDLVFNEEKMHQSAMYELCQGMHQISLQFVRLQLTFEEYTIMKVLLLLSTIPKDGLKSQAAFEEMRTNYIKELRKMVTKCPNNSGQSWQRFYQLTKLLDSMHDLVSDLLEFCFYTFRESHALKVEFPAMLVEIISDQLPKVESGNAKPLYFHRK
Assay: biochemical
Conditions: not given

Row | SMILES | Ki [µM]
2 | O=c1[nH]c(N2CCC(c3ccccc3)CC2)c(Cc2ccccc2Cl)c(=O)[nH]1 | 3.49
3 | COc1ccccc1C1CCN(c2[nH]c(=O)[nH]c(=O)c2Cc2ccccc2)CC1 | 0.298
4 | O=c1[nH]c(N2CCC(c3cccc(Cl)c3)CC2)c(Cc2ccccc2)c(=O)[nH]1 | 0.527
5 | O=c1[nH]c(N2CCC(c3ccccc3)CC2)c(Cc2ccccc2)c(=O)[nH]1 | 0.93
6 | COc1cccc(C2CCN(c3[nH]c(=O)[nH]c(=O)c3Cc3ccccc3)CC2)c1 | 1.27

Target: T2, Glucocorticoid receptor (Homo sapiens) (UniProt P04150)
T2 sequence (whole entry): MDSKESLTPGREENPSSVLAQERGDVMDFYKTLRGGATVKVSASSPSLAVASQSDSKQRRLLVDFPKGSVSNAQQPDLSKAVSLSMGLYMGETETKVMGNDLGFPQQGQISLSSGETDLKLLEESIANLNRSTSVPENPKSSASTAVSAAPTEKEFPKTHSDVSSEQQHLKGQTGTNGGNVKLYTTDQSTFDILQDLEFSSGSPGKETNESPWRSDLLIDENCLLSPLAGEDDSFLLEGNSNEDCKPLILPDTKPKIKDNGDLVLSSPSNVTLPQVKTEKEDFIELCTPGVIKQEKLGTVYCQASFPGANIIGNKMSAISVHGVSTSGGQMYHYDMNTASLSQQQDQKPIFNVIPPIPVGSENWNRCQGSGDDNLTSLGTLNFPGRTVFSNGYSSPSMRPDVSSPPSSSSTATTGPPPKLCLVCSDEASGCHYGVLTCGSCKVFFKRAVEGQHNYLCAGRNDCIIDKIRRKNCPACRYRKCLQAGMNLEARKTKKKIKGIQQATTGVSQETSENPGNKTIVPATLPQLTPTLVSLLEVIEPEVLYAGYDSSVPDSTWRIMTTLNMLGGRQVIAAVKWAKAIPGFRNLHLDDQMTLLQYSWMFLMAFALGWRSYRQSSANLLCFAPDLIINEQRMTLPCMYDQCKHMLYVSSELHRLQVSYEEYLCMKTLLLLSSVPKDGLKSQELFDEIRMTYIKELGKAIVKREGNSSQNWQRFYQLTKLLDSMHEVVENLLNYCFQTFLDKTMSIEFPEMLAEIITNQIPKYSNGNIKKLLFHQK
Assay: Displacement of [3H]dexamethasone from glucocorticoid receptor at 1 uM
Conditions: not given

Row | SMILES | inhibition [%]
7 | COc1cccc(Cc2c(N3CCC(c4ccccc4)CC3)[nH]c(=O)[nH]c2=O)c1 | 31
8 | Cn1c(N2CCC(Cc3ccccc3)CC2)c(Cc2ccccc2)c(=O)[nH]c1=O | 11
9 | Cn1c(=O)[nH]c(N2CCc3ccccc3C2)c(Cc2ccccc2)c1=O | 23
10 | CC(=O)Nc1cccc(C2CCN(c3[nH]c(=O)[nH]c(=O)c3Cc3ccccc3)CC2)c1 | 11
11 | Cn1c(=O)[nH]c(N2CCC(CCCc3ccccc3)CC2)c(Cc2ccccc2)c1=O | 18
12 | N#Cc1ccc(Cc2c(N3CCC(c4ccccc4)CC3)[nH]c(=O)[nH]c2=O)cc1 | 37
13 | CC1CCN(c2[nH]c(=O)n(C)c(=O)c2Cc2ccccc2)CC1 | 2

Target: T3, Glucocorticoid receptor (Homo sapiens, UniProt P04150)
T3 sequence (P04150 whole entry): T2 sequence (whole entry)
Assay: Antagonist activity at human GR
Type: functional
Conditions: not given

Row | SMILES | Ki [µM]
14 | O=c1[nH]c(N2CCC(c3ccccc3)CC2)c(Cc2ccc(Cl)cc2)c(=O)[nH]1 | 0.26
15 | O=c1[nH]c(N2CCC(c3ccccc3)CC2)c(Cc2ccccc2Cl)c(=O)[nH]1 | 0.05
16 | O=c1[nH]c(N2CCC(c3ccccc3)CC2)c(Cc2cccc(Br)c2)c(=O)[nH]1 | 0.065
17 | Cn1c(=O)[nH]c(N2CCC(c3ccccc3)CC2)c(Cc2ccccc2)c1=O | 0.19
18 | Cn1c(=O)[nH]c(N2CCC(Cc3ccccc3)CC2)c(Cc2ccccc2)c1=O | 0.1
19 | O=c1[nH]c(N2CCC(c3ccccc3)CC2)c(Cc2ccccc2)c(=O)[nH]1 | 0.093
20 | O=c1[nH]c(N2CCC(c3ccccc3)CC2)c(Cc2cccc(Cl)c2)c(=O)[nH]1 | 0.096
21 | O=c1[nH]c(N2CCC(Cc3ccccc3)CC2)c(Cc2ccccc2)c(=O)[nH]1 | 0.15
22 | Cn1c(=O)[nH]c(N2CCC(Cc3ccccc3)CC2)c(Cc2ccccc2Br)c1=O | 0.3
23 | COc1cccc(C2CCN(c3[nH]c(=O)[nH]c(=O)c3Cc3ccccc3)CC2)c1 | 0.158

Target: T3, Glucocorticoid receptor
Assay: Displacement of [3H]dexamethasone from human recombinant GR
Conditions: not given

Row | SMILES | Ki [µM]
24 | COc1ccc(C2CCN(c3[nH]c(=O)[nH]c(=O)c3Cc3ccccc3)CC2)cc1 | 0.045
25 | N#Cc1cccc(Cc2c(N3CCC(c4ccccc4)CC3)[nH]c(=O)[nH]c2=O)c1 | 0.037
26 | CC(=O)Nc1ccc(C2CCN(c3[nH]c(=O)[nH]c(=O)c3Cc3ccccc3)CC2)cc1 | 0.046
27 | O=c1[nH]c(N2CCC(c3ccccc3)CC2)c(Cc2ccc(Cl)cc2)c(=O)[nH]1 | 0.031
28 | O=c1[nH]c(N2CCC(c3ccccc3)CC2)c(Cc2ccccc2Cl)c(=O)[nH]1 | 0.0087
29 | O=c1[nH]c(N2CCC(c3ccccc3)CC2)c(Cc2cccc(Br)c2)c(=O)[nH]1 | 0.014
30 | COc1ccccc1C1CCN(c2[nH]c(=O)[nH]c(=O)c2Cc2ccccc2)CC1 | 0.0071
31 | Cn1c(=O)[nH]c(N2CCC(c3ccccc3)CC2)c(Cc2ccccc2)c1=O | 0.02
32 | Cn1c(=O)[nH]c(N2CCC(O)CC2)c(Cc2cccc(C(F)(F)F)c2)c1=O | 4.5
33 | Cn1c(=O)[nH]c(N2CCC(Cc3ccccc3)CC2)c(Cc2ccccc2)c1=O | 0.024
34 | Cn1c(=O)[nH]c(N2CCC(Oc3ccccc3)CC2)c(Cc2ccccc2)c1=O | 0.078
35 | O=c1[nH]c(N2CCC(c3ccccc3)CC2)c(Cc2ccccc2)c(=O)[nH]1 | 0.0081
36 | O=c1[nH]c(N2CCC(c3ccccc3)CC2)c(Cc2cccc(Cl)c2)c(=O)[nH]1 | 0.0091
37 | O=c1[nH]c(N2CCC(Cc3ccccc3)CC2)c(Cc2ccccc2)c(=O)[nH]1 | 0.019
38 | Cn1c(=O)[nH]c(N2CCC(Cc3ccccc3)CC2)c(Cc2ccccc2Br)c1=O | 0.033
39 | Cn1c(=O)[nH]c(N2CCC(O)(Cc3ccccc3)CC2)c(Cc2ccccc2)c1=O | 0.36
40 | COc1cccc(C2CCN(c3[nH]c(=O)[nH]c(=O)c3Cc3ccccc3)CC2)c1 | 0.0092

Target: T4, Progesterone receptor (Homo sapiens, UniProt P06401)
T4 sequence (P06401 whole entry): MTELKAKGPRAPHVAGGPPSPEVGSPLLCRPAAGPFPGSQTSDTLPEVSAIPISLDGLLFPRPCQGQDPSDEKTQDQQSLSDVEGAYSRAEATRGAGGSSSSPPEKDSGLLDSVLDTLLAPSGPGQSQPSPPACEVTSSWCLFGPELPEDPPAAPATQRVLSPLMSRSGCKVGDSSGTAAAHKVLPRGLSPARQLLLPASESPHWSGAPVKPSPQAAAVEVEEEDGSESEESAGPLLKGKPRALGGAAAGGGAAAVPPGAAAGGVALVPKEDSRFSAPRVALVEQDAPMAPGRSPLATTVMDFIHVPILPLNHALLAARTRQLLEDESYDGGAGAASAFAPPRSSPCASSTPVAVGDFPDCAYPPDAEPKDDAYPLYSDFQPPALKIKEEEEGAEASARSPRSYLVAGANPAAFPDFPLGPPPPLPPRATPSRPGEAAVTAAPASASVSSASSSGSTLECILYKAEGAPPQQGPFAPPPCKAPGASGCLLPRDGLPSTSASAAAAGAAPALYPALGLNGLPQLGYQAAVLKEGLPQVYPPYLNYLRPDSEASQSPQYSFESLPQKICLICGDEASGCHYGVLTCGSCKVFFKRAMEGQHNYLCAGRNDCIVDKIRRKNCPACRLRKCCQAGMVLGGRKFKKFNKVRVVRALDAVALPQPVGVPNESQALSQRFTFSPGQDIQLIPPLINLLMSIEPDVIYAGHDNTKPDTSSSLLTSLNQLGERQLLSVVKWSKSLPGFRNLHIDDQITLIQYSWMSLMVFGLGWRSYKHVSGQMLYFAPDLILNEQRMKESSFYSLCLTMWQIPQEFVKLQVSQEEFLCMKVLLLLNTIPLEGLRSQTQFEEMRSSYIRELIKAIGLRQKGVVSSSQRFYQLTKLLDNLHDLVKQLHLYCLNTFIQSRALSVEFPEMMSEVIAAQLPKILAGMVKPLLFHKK
Assay: Displacement of [3H]progesterone from progesterone receptor
Conditions: not given

Row | SMILES | Ki [µM]
41 | O=c1[nH]c(N2CCC(c3ccccc3)CC2)c(Cc2cccc(Cl)c2)c(=O)[nH]1 | 7.05

Tested on: Brain
Assay: Drug level in rat brain at 1 mg/kg, iv
Type: ADME, organism-based
Design: dose 1 mg/kg, route intravenous
Conditions: in vivo

Row | SMILES | Drug uptake [ng/g]
42 | O=c1[nH]c(N2CCC(c3ccccc3)CC2)c(Cc2ccccc2)c(=O)[nH]1 | 45

Tested on: Plasma
Assay: Drug lavel in rat plasma at 1 mg/kg, iv
Type: ADME, organism-based
Design: dose 1 mg/kg, route intravenous
Conditions: in vivo

Row | SMILES | Cp [ng/mL]
43 | O=c1[nH]c(N2CCC(c3ccccc3)CC2)c(Cc2ccccc2)c(=O)[nH]1 | 178

Tested on: not listed separately
Assay: AUC in rat at 5 mg/kg, po
Type: ADME, organism-based
Design: dose 5 mg/kg, route oral
Conditions: plasma

Row | SMILES | AUC [ng·h/mL]
44 | O=c1[nH]c(N2CCC(c3ccccc3)CC2)c(Cc2ccccc2)c(=O)[nH]1 | 600

Tested on: not listed separately
Assay: Metabolic stability in human […] S9 fraction after 30 mins
Type: ADME
Conditions: read-out: Stability

Row | SMILES | remaining at 0.5 h [%]
45 | O=c1[nH]c(N2CCC(c3ccccc3)CC2)c(Cc2ccccc2)c(=O)[nH]1 | 94

Target: CYP3A4 (Homo sapiens, UniProt P08684)
Sequence (P08684 whole entry): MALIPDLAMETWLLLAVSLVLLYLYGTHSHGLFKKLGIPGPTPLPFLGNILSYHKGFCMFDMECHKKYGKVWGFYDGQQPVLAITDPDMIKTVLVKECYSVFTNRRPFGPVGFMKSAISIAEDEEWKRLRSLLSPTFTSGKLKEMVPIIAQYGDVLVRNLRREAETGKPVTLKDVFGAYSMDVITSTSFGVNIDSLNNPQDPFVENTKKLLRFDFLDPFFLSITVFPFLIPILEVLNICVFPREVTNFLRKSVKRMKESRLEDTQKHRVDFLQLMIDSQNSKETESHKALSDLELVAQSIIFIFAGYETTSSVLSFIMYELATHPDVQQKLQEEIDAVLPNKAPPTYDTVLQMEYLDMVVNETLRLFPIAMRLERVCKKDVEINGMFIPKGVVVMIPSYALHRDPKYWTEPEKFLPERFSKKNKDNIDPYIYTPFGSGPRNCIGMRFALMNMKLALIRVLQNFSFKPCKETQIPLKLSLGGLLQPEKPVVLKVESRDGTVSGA
Assay: Inhibition of CYP3A4 at 1 uM
Type: ADME
Conditions: not given

Row | SMILES | inhibition at 1 µM [%]
46 | O=c1[nH]c(N2CCC(c3ccccc3)CC2)c(Cc2ccccc2)c(=O)[nH]1 | 25
